Experimental data from PubChem BioAssay AID1963972 (Molecular Pharmacology Branch, DTP, NCI, 2024).

Test system: 945468-187-T-J2-PDC spheroids viability
Assay: Anticancer human tumor 945468-187-T-J2-PDC patient-derived rectal carcinoma cell line growth inhibition [PI3K]
Conditions: spheroids with HUVEC and MSC; for IC50: curve of first compound; for viability, T/C: stronger effect = lower value
How it was run: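 Three cell types, namely tumor cells, endothelial cells and mesenchymal stem cells, formed each spheroid. Combinations with four PI3K inhibitors were screened at clinically achievable concentrations decreasing by half-log, and spheroid viability was recorded.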

[1] = second compound 0.0316 µM, first compound 0.0316 µM
[2] = second compound 0.0316 µM, first compound 0.1 µM
[3] = second compound 0.1 µM, first compound 0.0316 µM
[4] = second compound 0.1 µM, first compound 0.1 µM
[5] = second compound 0.316 µM, first compound 0.0316 µM
[6] = second compound 0.316 µM, first compound 0.1 µM
[7] = second compound 1 µM, first compound 0.0316 µM
[8] = second compound 1 µM, first compound 0.1 µM
[9] = second compound 3.16 µM, first compound 0.0316 µM
[10] = second compound 3.16 µM, first compound 0.1 µM
[11] = second compound 10 µM, first compound 0.0316 µM
[12] = second compound 10 µM, first compound 0.1 µM
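Also: spheroids exposed to compounds for seven days before reading.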

Q: How did the IC50 (second compound 0.0316 µM) turn out when `CC(C)n1nc(-c2ccc3oc(N)nc3c2)c2c(N)ncnc21` + Cc1nc(NC(=O)N2CCCC2C(N)=O)sc1-c1ccnc(C(C)(C)C(F)(F)F)c1 was run?
A: The IC50 was > 0.1 µM.

Q: And the IC50 (second compound 0.1 µM)?
A: Its IC50 is > 0.1 µM.

Q: What about the IC50 (second compound 0.316 µM) of the same compound?
A: The IC50 was > 0.1 µM.

Q: And the IC50 (second compound 1 µM)?
A: The IC50 was > 0.1 µM.

Q: What about the IC50 (second compound 3.16 µM) of the same compound?
A: The IC50 was 0.0583 µM.

Q: What about the IC50 (second compound 10 µM) of the same compound?
A: The IC50 was 0.0213 µM.

Q: What about the viability, T/C (second compound 0.0316 µM, first compound 0.000316 µM) of the same compound?
A: Its viability, T/C is 91.4%.

Q: And the viability, T/C (second compound 0.0316 µM, first compound 0.001 µM)?
A: Its viability, T/C is 109%.

Q: What about the viability, T/C (second compound 0.0316 µM, first compound 0.00316 µM) of the same compound?
A: Its viability, T/C is 69.1%.

Q: And the viability, T/C (second compound 0.0316 µM, first compound 0.01 µM)?
A: Its viability, T/C is 83.5%.

Q: What about the viability, T/C [1] of the same compound?
A: The viability, T/C was 77.9%.

Q: What about the viability, T/C [2] of the same compound?
A: The viability, T/C was 71.2%.

Q: What about the viability, T/C (second compound 0.1 µM, first compound 0.000316 µM) of the same compound?
A: Its viability, T/C is 103%.

Q: What about the viability, T/C (second compound 0.1 µM, first compound 0.001 µM) of the same compound?
A: The viability, T/C was 77.7%.

Q: And the viability, T/C (second compound 0.1 µM, first compound 0.00316 µM)?
A: The viability, T/C was 88.6%.

Q: And the viability, T/C (second compound 0.1 µM, first compound 0.01 µM)?
A: The viability, T/C was 81.4%.

Q: What about the viability, T/C [3] of the same compound?
A: Its viability, T/C is 84.9%.

Q: What about the viability, T/C [4] of the same compound?
A: Its viability, T/C is 55.6%.

Q: And the viability, T/C (second compound 0.316 µM, first compound 0.000316 µM)?
A: The viability, T/C was 65.9%.

Q: And the viability, T/C (second compound 0.316 µM, first compound 0.001 µM)?
A: Its viability, T/C is 68.2%.

Q: And the viability, T/C (second compound 0.316 µM, first compound 0.00316 µM)?
A: The viability, T/C was 80.4%.

Q: What about the viability, T/C (second compound 0.316 µM, first compound 0.01 µM) of the same compound?
A: Its viability, T/C is 81.5%.

Q: And the viability, T/C [5]?
A: Its viability, T/C is 75.3%.

Q: And the viability, T/C [6]?
A: The viability, T/C was 68.8%.

Q: What about the viability, T/C (second compound 1 µM, first compound 0.000316 µM) of the same compound?
A: Its viability, T/C is 70.3%.

Q: What about the viability, T/C (second compound 1 µM, first compound 0.001 µM) of the same compound?
A: Its viability, T/C is 80.6%.

Q: What about the viability, T/C (second compound 1 µM, first compound 0.00316 µM) of the same compound?
A: The viability, T/C was 73.2%.

Q: What about the viability, T/C (second compound 1 µM, first compound 0.01 µM) of the same compound?
A: The viability, T/C was 91.5%.

Q: And the viability, T/C [7]?
A: Its viability, T/C is 75.3%.

Q: What about the viability, T/C [8] of the same compound?
A: The viability, T/C was 57.9%.

Q: And the viability, T/C (second compound 3.16 µM, first compound 0.000316 µM)?
A: Its viability, T/C is 77%.

Q: And the viability, T/C (second compound 3.16 µM, first compound 0.001 µM)?
A: Its viability, T/C is 68.9%.

Q: And the viability, T/C (second compound 3.16 µM, first compound 0.00316 µM)?
A: The viability, T/C was 75.2%.

Q: And the viability, T/C (second compound 3.16 µM, first compound 0.01 µM)?
A: Its viability, T/C is 78.1%.

Q: And the viability, T/C [9]?
A: The viability, T/C was 64%.

Q: What about the viability, T/C [10] of the same compound?
A: Its viability, T/C is 37.6%.

Q: And the viability, T/C (second compound 10 µM, first compound 0.000316 µM)?
A: The viability, T/C was 77.5%.

Q: And the viability, T/C (second compound 10 µM, first compound 0.001 µM)?
A: Its viability, T/C is 62.4%.

Q: And the viability, T/C (second compound 10 µM, first compound 0.00316 µM)?
A: The viability, T/C was 66.9%.

Q: And the viability, T/C (second compound 10 µM, first compound 0.01 µM)?
A: Its viability, T/C is 58.7%.

Q: What about the viability, T/C [11] of the same compound?
A: Its viability, T/C is 46.5%.

Q: And the viability, T/C [12]?
A: Its viability, T/C is 27.2%.

Q: Which IC50 (second compound 0.0316 µM) does the source give for `CCCS(=O)(=O)Nc1ccc(F)c(C(=O)c2c[nH]c3ncc(-c4ccc(Cl)cc4)cc23)c1F` + Cc1nc(NC(=O)N2CCCC2C(N)=O)sc1-c1ccnc(C(C)(C)C(F)(F)F)c1 here?
A: The IC50 was 4.36 µM.

Q: And the IC50 (second compound 0.1 µM)?
A: Its IC50 is 3.88 µM.

Q: What about the IC50 (second compound 0.316 µM) of the same compound?
A: The IC50 was 5.58 µM.

Q: And the IC50 (second compound 1 µM)?
A: Its IC50 is 4.71 µM.

Q: And the IC50 (second compound 3.16 µM)?
A: Its IC50 is 4.23 µM.

Q: What about the IC50 (second compound 10 µM) of the same compound?
A: The IC50 was 4.46 µM.

Q: What about the viability, T/C [1] of the same compound?
A: The viability, T/C was 84.6%.

Q: And the viability, T/C [2]?
A: Its viability, T/C is 96.3%.

Q: What about the viability, T/C (second compound 0.0316 µM, first compound 0.316 µM) of the same compound?
A: The viability, T/C was 67.6%.

Q: And the viability, T/C (second compound 0.0316 µM, first compound 1 µM)?
A: The viability, T/C was 80.9%.

Q: What about the viability, T/C (second compound 0.0316 µM, first compound 3.16 µM) of the same compound?
A: Its viability, T/C is 68.5%.

Q: And the viability, T/C (second compound 0.0316 µM, first compound 10 µM)?
A: The viability, T/C was 2.55%.

Q: What about the viability, T/C [3] of the same compound?
A: The viability, T/C was 87.3%.

Q: And the viability, T/C [4]?
A: Its viability, T/C is 66.7%.

Q: What about the viability, T/C (second compound 0.1 µM, first compound 0.316 µM) of the same compound?
A: Its viability, T/C is 86.7%.

Q: What about the viability, T/C (second compound 0.1 µM, first compound 1 µM) of the same compound?
A: The viability, T/C was 108%.

Q: And the viability, T/C (second compound 0.1 µM, first compound 3.16 µM)?
A: Its viability, T/C is 59.9%.

Q: What about the viability, T/C (second compound 0.1 µM, first compound 10 µM) of the same compound?
A: The viability, T/C was 4.2%.

Q: And the viability, T/C [5]?
A: The viability, T/C was 98.5%.

Q: What about the viability, T/C [6] of the same compound?
A: The viability, T/C was 84.8%.

Q: What about the viability, T/C (second compound 0.316 µM, first compound 0.316 µM) of the same compound?
A: The viability, T/C was 74.3%.

Q: And the viability, T/C (second compound 0.316 µM, first compound 1 µM)?
A: The viability, T/C was 84.8%.

Q: And the viability, T/C (second compound 0.316 µM, first compound 3.16 µM)?
A: Its viability, T/C is 81.9%.

Q: And the viability, T/C (second compound 0.316 µM, first compound 10 µM)?
A: Its viability, T/C is 17.3%.

Q: What about the viability, T/C [7] of the same compound?
A: The viability, T/C was 78%.

Q: And the viability, T/C [8]?
A: Its viability, T/C is 84.7%.

Q: What about the viability, T/C (second compound 1 µM, first compound 0.316 µM) of the same compound?
A: Its viability, T/C is 71.3%.

Q: What about the viability, T/C (second compound 1 µM, first compound 1 µM) of the same compound?
A: Its viability, T/C is 67.5%.

Q: And the viability, T/C (second compound 1 µM, first compound 3.16 µM)?
A: The viability, T/C was 73.7%.

Q: And the viability, T/C (second compound 1 µM, first compound 10 µM)?
A: The viability, T/C was 5.17%.

Q: What about the viability, T/C [9] of the same compound?
A: Its viability, T/C is 68.8%.

Q: What about the viability, T/C [10] of the same compound?
A: Its viability, T/C is 66%.

Q: And the viability, T/C (second compound 3.16 µM, first compound 0.316 µM)?
A: Its viability, T/C is 78.5%.

Q: What about the viability, T/C (second compound 3.16 µM, first compound 1 µM) of the same compound?
A: Its viability, T/C is 72.5%.

Q: What about the viability, T/C (second compound 3.16 µM, first compound 3.16 µM) of the same compound?
A: The viability, T/C was 63.4%.

Q: What about the viability, T/C (second compound 3.16 µM, first compound 10 µM) of the same compound?
A: Its viability, T/C is 8.66%.

Q: What about the viability, T/C [11] of the same compound?
A: Its viability, T/C is 60.4%.

Q: And the viability, T/C [12]?
A: Its viability, T/C is 61.4%.

Q: What about the viability, T/C (second compound 10 µM, first compound 0.316 µM) of the same compound?
A: Its viability, T/C is 80%.

Q: What about the viability, T/C (second compound 10 µM, first compound 1 µM) of the same compound?
A: Its viability, T/C is 55.6%.

Q: What about the viability, T/C (second compound 10 µM, first compound 3.16 µM) of the same compound?
A: The viability, T/C was 70.2%.

Q: And the viability, T/C (second compound 10 µM, first compound 10 µM)?
A: Its viability, T/C is 13.4%.
